Test results from US20120016011A1, “RNA Interference Mediated Inhibition of Connective Tissue Growth Factor (CTGF) Gene Expression Using Short Interfering Nucleic Acid (siNA)” (Merck Sharp & Dohme Corp., priority 2009, published 2012).
[invAb] = inverted abasic unit; m = 2'-O-methyl; r = 2'-OH (RNA); f = 2'-fluoro

Key:
Format in all cases: cell-based
GAPDH mRNA = GAPDH mRNA reduction (normalizer, check for toxicity) in siNA-transfected NHLF cells; details: human NHLF cells, mean ± S.D.
Experimental: NHLF (Normal human lung fibroblasts; Lonza cat# CC-2512): Cells were cultured at 37° C. in the presence of 5% CO2 and grown in Fibroblast Basal Medium (Lonza cat# CC-3132) supplemented with 2% FBS and growth factors (provided with the kit) and 100 μg/mL of streptomycin and 100 U/mL penicillin.
Cells were plated in all wells of a tissue-culture treated, 96-well plate at a final count of 5000 cells/well in […], of the appropriate culture media. The cells were cultured for 24 hours after plating at 37° C. in the presence of 5% CO2.
After 24 hours, complexes containing siNA and RNAiMax were created as follows: A solution of RNAiMax diluted 33-fold in OPTI-MEM was prepared. In parallel, solutions of the siNAs for testing were prepared to a final concentration of 120 nM in OPTI-MEM. After incubation of RNAiMax/OPTI-MEM solution at room temperature for 5 min, an equal volume of the siNA solution and the RNAiMax solution were added together for each of the siNAs.
This solution was incubated at room temperature for 20 minutes. After incubation, 20 uL of the solution was added to each of the relevant wells. The final concentration of siNA in each well was 10 nM and the final volume of RNAiMax in each well was 0.3 ul.
The time of incubation with the RNAiMax-siNA complexes was 24 hours and there was no change in media between transfection and harvesting, unless otherwise indicated.
A series of probes and primers were used to detect the various mRNA transcripts of the genes of β-Actin (human cell line only), and of CTGF and GAPDH in mouse and human cell lines. All Taqman probes and primers for the experiments here-in described were supplied as pre-validated sets by Applied Biosystems, Inc. (see Table 3).
The assays were performed on an ABI 7900 instrument, according to the manufacturer's instructions. A TaqMan Gene Expression Master Mix (provided in the Cells-to-CT™, Applied Biosystems, Cat # 4399002) was used. The PCR reactions were carried out at 50° C. for 2 min, 95° C. for 20 min followed by 40 cycles at 95° C. for 15 secs and 60° C. for 1 min.
Additionally, only normalized data, which reflects the general health of the cell and quality of the RNA extraction, was examined. This was done by looking at the level of two different mRNAs in the treated cells, the first being the target mRNA and the second being the normalizer mRNA. This allowed for elimination of siNAs that might be potentially toxic to cells rather than solely knocking down the gene of interest. This was done by comparing the Ct for GAPDH in each well relative to the Ct for the entire plate.

CTGF mRNA [1] = assay: CTGF mRNA knockdown (Taqman RT-PCR) after siNA transfection of mouse NIH 3T3 cells; details: mouse NIH3T3 cells, 10 nM siNA, 24 hrs, average of 3 experiments, vs non-targeting control
Outline: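 Mouse NIH 3T3 cells, 5000/well, transfected 24 h after plating with siNA at 10 nM final using RNAiMax, 24 h exposure without media change. CTGF mRNA by TaqMan RT-qPCR with GAPDH, knockdown via comparative Ct (2^−ΔΔCt) against non-targeting control siNA.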

CTGF mRNA [2] = assay: CTGF mRNA knockdown (Taqman RT-PCR) after siNA transfection of human NHLF cells; details: for % KD Human: 10 nM siNA, 24 hrs, average of 3 experiments, vs non-targeting control; for % KD CTGF mRNA at 10 nM / IC50: mean ± S.D.
Outline: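 Normal human lung fibroblasts (5000 cells/well) were transfected 24 h after plating with 10 nM siNA complexed with RNAiMax and harvested 24 h later without a media change. CTGF mRNA was measured by TaqMan RT-qPCR on Cells-to-CT lysates, with β-actin and GAPDH assayed alongside. Knockdown was calculated by comparative Ct (ΔΔCt) against non-targeting control siNA.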

| Substance | % Reduction GAPDH mRNA at 10 nM (GAPDH mRNA) [%] | % KD Mouse (CTGF mRNA [1]) [%] | % KD Human (CTGF mRNA [2]) [%] | % KD CTGF mRNA at 10 nM (CTGF mRNA [2]) [%] | IC50 (CTGF mRNA [2]) [nM] |
| --- | --- | --- | --- | --- | --- |
| 48048-DC: siNA duplex; sense SEQ ID NO: 61 B GAuAGcAucuuAuAcGAGu TTB; antisense SEQ ID NO: 62 ACUcGuAuAAGAuGcuAucUU (sense GAUAGCAUCUUAUACGAGUTT; antisense ACUCGUAUAAGAUGCUAUCUU; sense: DNA at AGT, 2'-fluoro at CU, [invAb] at 5' end, 3' end, backbone not given here; antisense: sugars from the 5' end rrrfmfmfmmmmfmffmffmm, backbone not given here) | −2 ± 10 | 21 ± 5 | 80 ± 3 | 80 ± 3 | 0.049 ± 0.016 |
| 48046-DC: siNA duplex; sense SEQ ID NO: 57 B cAcAGcAccAGAAuGuAuA TTB; antisense SEQ ID NO: 58 UAUAcAuucuGGuGcuGuGUU (sense CACAGCACCAGAAUGUAUATT; antisense UAUACAUUCUGGUGCUGUGUU; sense: DNA at AGT, 2'-fluoro at CU, [invAb] at 5' end, 3' end, backbone not given here; antisense: sugars from the 5' end rrrmfmffffmmfmffmfmmm, backbone not given here) | −53 ± 14 | 19 ± 3 | 85 ± 3 | 85 ± 3 | 0.031 ± 0.011 |
| 48047-DC: siNA duplex; sense SEQ ID NO: 59 B cGAGuAAuAuGccuGcuAu TTB; antisense SEQ ID NO: 60 AUAGcAGGcAuAuuAcucGUU (sense CGAGUAAUAUGCCUGCUAUTT; antisense AUAGCAGGCAUAUUACUCGUU; sense: DNA at AGT, 2'-fluoro at CU, [invAb] at 5' end, 3' end, backbone not given here; antisense: sugars from the 5' end rrrmfmmmfmfmffmfffmmm, backbone not given here) | −5 ± 14 | 18 ± 3 | 81 ± 3 | 81 ± 3 | 0.071 ± 0.03 |
| 48055-DC: siNA duplex; sense SEQ ID NO: 75 B cAAGuuAuuuAAAucuGuu TTB; antisense SEQ ID NO: 76 AACAGAuuuAAAuAAcuuGUU (sense CAAGUUAUUUAAAUCUGUUTT; antisense AACAGAUUUAAAUAACUUGUU; sense: DNA at AGT, 2'-fluoro at CU, [invAb] at 5' end, 3' end, backbone not given here; antisense: sugars from the 5' end rrrmmmfffmmmfmmfffmmm, backbone not given here) | −18 ± 4 | 24 ± 2 | 88 ± 0 | 88 ± 0 | 0.11 ± 0.038 |
| 48042-DC: siNA duplex; sense SEQ ID NO: 49 B GAcAuuAAcucAuuAGAcu TTB; antisense SEQ ID NO: 50 AGUcuAAuGAGuuAAuGucUU (sense GACAUUAACUCAUUAGACUTT; antisense AGUCUAAUGAGUUAAUGUCUU; sense: DNA at AGT, 2'-fluoro at CU, [invAb] at 5' end, 3' end, backbone not given here; antisense: sugars from the 5' end rrrffmmfmmmffmmfmffmm, backbone not given here) | −43 ± 32 | 30 ± 4 | 90 ± 1 | 90 ± 1 | 0.095 ± 0.022 |
